According to patent US9777017B2, “Tricyclic fused thiophene derivatives as JAK inhibitors” (Incyte Corporation, priority 2012, dated 2017):

Experiments:
Type in all cases: biochemical
[1] = molecular target: human JAK1 (Homo sapiens, UniProt P23458); assay: In vitro JAK kinase assay (HTRF, phosphorylation of a biotinylated peptide), JAK1; conditions: 1 mM ATP
Summary of the method: (§1)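 Baculovirus-expressed catalytic domains (JAK1 a.a. 837-1142, JAK2 a.a. 828-1132) phosphorylate 500 nM biotinylated peptide at 1 mM ATP, Tris pH 7.8, 1 h at room temperature. EDTA stop and HTRF detection with Eu-Py20/SA-APC; IC50 values derived.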

[2] = system: human JAK1; assay: as above; conditions: ratio of IC50s, 1 mM ATP
Summary of the method: as §1

[3] = molecular target: human JAK2 (Homo sapiens (Human), UniProt O60674); assay: In vitro JAK kinase assay (HTRF, phosphorylation of a biotinylated peptide), JAK2; parameters: key to JAK2 IC50 (nM): +indicates an IC50 of ≦100 nM; ++indicates an IC50 of ≦1000 nM; +++indicates an IC50 of ≦2000 nM; ++++indicates an IC50 of >2000 nM; +++++indicates that the IC50 was greater than the highest concentration tested; conditions: 1 mM ATP
Summary of the method: as §1

Sequence of human JAK2 (O60674 828-1132): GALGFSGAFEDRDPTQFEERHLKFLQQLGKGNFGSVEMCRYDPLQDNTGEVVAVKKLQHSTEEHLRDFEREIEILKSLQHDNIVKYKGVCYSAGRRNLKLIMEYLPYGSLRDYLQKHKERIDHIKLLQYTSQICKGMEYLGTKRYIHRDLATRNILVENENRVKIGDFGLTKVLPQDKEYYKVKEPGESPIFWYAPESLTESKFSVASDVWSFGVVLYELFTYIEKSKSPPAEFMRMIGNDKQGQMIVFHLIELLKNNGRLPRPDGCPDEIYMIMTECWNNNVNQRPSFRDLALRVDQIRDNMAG

Molecule | IC50 [1] | JAK2/JAK1 [2] | IC50 [3] | JAK2 IC50 (nM) [3]
N#CC[C@H]1CC[C@H](n2c(CO)nc3cnc4ccsc4c32)CC1 [Example 17, {trans-4-[2-(Hydroxymethyl)-1H-imidazo[4,5-b]thieno[3,2-b]pyridin-1-yl]cyclohexyl}acetonitrile] | ≤ 100 nM | >10 | ≤ 1000 nM | –
C[C@@H](O)c1nc2cnc3ccsc3c2n1[C@@H]1CC[C@@H](CC#N)OC1 [Example 44, ((2S,5R)-5-{2-[(1R)-1-Hydroxyethyl]-1H-imidazo[4,5-b]thieno[3,2-b]pyridin-1-yl}tetrahydro-2H-pyran-2-yl)acetonitrile] | ≤ 1000 nM | >10 | – | +++++
CC(F)c1nc2cnc3ccsc3c2n1[C@H]1CC[C@H](CC#N)OC1 (stereo partly drawn) [Example 71, {(2R,5S)-5-[2-(1-Fluoroethyl)-1H-imidazo[4,5-d]thieno[3,2-b]pyridin-1-yl]tetrahydro-2H-pyran-2-yl}acetonitrile] | ≤ 100 nM | >10 | ≤ 1000 nM | –
C[C@@H](O)c1nc2cnc3ccsc3c2n1[C@H]1CC[C@@H](C#N)CC1 [Example 7, cis-4-{2-[(1R)-1-Hydroxyethyl]-1H-imidazo[4,5-d]thieno[3,2-b]pyridin-1-yl}cyclohexanecarbonitrile] | ≤ 100 nM | >10 | ≤ 2000 nM | –
C[C@@H](O)c1nc2cnc3ccsc3c2n1[C@H]1CC[C@H](CCS(C)(=O)=O)CC1 [Example 5, (1R)-1-(1-{trans-4-[2-(Methylsulfonyl)ethyl]cyclohexyl}-1H-imidazo[4,5-d]thieno[3,2-b]pyridin-2-yl)ethanol] | ≤ 100 nM | >10 | – | +++++
N#CCc1nc2cnc3ccsc3c2n1[C@H]1CC[C@H](CC#N)CC1 [Example 90, {1-[trans-4-(Cyanomethyl)cyclohexyl]-1H-imidazo[4,5-d]thieno[3,2-b]pyridin-2-yl}acetonitrile] | ≤ 100 nM | >10 | ≤ 1000 nM | –
N#CCC1CCC(CO)(n2cnc3cnc4ccsc4c32)CC1 (single isomer, unassigned) [72 (second peak), [4-(Hydroxymethyl)-4-(1H-imidazo[4,5-d]thieno[3,2-b]pyridin-1-yl)cyclohexyl]acetonitrile] | ≤ 100 nM | >5 | ≤ 1000 nM | –
N#CCc1nc2cnc3ccsc3c2n1[C@H]1CC[C@H](CC#N)OC1 [Example 73, {(2R,5S)-5-[2-(Cyanomethyl)-1H-imidazo[4,5-d]thieno[3,2-b]pyridin-1-yl]tetrahydro-2H-pyran-2-yl}acetonitrile] | ≤ 100 nM | >10 | ≤ 1000 nM | –
N#CC[C@H]1CC[C@H](n2/c(=N/C#N)[nH]c3cnc4ccsc4c32)CC1.O=C(O)C(F)(F)F [Example 25, {(2E)-1-[trans-4-(Cyanomethyl)cyclohexyl]-1,3-dihydro-2H-imidazo[4,5-d]thieno[3,2-b]pyridin-2-ylidene}cyanamide trifluoroacetate] | ≤ 100 nM | >6 | ≤ 1000 nM | –
C[C@@H](O)c1nc2cnc3ccsc3c2n1C1CCC(NCCC#N)CC1 (single isomer, unassigned) [30 (first peak)] | ≤ 1000 nM | >2 | > 2000 nM | –
CC(=O)NC(C)c1nc2cnc3ccsc3c2n1[C@H]1CC[C@H](CC#N)OC1 (stereo partly drawn) [Example 69, N-(1-{1-[(3S,6R)-6-(Cyanomethyl)tetrahydro-2H-pyran-3-yl]-1H-imidazo[4,5-d]thieno[3,2-b]pyridin-2-yl}ethyl)acetamide] | ≤ 1000 nM | >10 | – | +++++
CCOC(=O)NC[C@H]1CC[C@H](n2c(CC#N)nc3cnc4ccsc4c32)CC1 [Example 87, Ethyl ({trans-4-[2-(cyanomethyl)-1H-imidazo[4,5-d]thieno[3,2-b]pyridin-1-yl]cyclohexyl}methyl)carbamate] | ≤ 100 nM | >10 | ≤ 1000 nM | –
C[C@H](O)c1nc2cnc3ccsc3c2n1[C@H]1CC[C@H](CC#N)OC1 [Example 45, ((2R,5S)-5-{2-[(1S)-1-Hydroxyethyl]-1H-imidazo[4,5-d]thieno[3,2-b]pyridin-1-yl}tetrahydro-2H-pyran-2-yl)acetonitrile] | ≤ 100 nM | >10 | > 2000 nM | –
C[C@@H](O)c1nc2cnc3ccsc3c2n1[C@H]1CCCN(C(=O)CC#N)C1.O=C(O)C(F)(F)F [Example 51, 3-((3S)-3-{2-[(1R)-1-Hydroxyethyl]-1H-imidazo[4,5-d]thieno[3,2-b]pyridin-1-yl}piperidin-1-yl)-3-oxopropanenitrile trifluoroacetate] | ≤ 1000 nM | >10 | > 2000 nM | –
CCc1nc2cnc3ccsc3c2n1[C@H]1CC[C@H](CC#N)CC1 [Example 47, [trans-4-(2-Ethyl-1H-imidazo[4,5-d]thieno[3,2-b]pyridin-1-yl)cyclohexyl]acetonitrile] | ≤ 100 nM | >10 | ≤ 1000 nM | –
C[C@@H](O)c1nc2cnc3ccsc3c2n1C1CCC(O)(CC#N)CC1 (single isomer, unassigned) [24 (first peak)] | ≤ 100 nM | >10 | > 2000 nM | –
C[C@@H](O)c1nc2cnc3ccsc3c2n1[C@H]1CCN(CCCCC#N)C1 [Example 66, 5-((3S)-3-{2-[(1R)-1-Hydroxyethyl]-1H-imidazo[4,5-d]thieno[3,2-b]pyridin-1-yl}pyrrolidin-1-yl)pentanenitrile] | ≤ 1000 nM | >10 | – | +++++
CCc1nc2cnc3ccsc3c2n1[C@H]1CC[C@H](CC#N)OC1 [Example 39, [(2R,5S)-5-(2-Ethyl-1H-imidazo[4,5-d]thieno[3,2-b]pyridin-1-yl)tetrahydro-2H-pyran-2-yl]acetonitrile] | ≤ 100 nM | >10 | ≤ 1000 nM | –
CC(N)c1nc2cnc3ccsc3c2n1[C@H]1CC[C@H](CC#N)OC1.O=C(O)C(F)(F)F (stereo partly drawn) [Example 68, {(2R,5S)-5-[2-(1-Aminoethyl)-1H-imidazo[4,5-d]thieno[3,2-b]pyridin-1-yl]tetrahydro-2H-pyran-2-yl}acetonitrile trifluoroacetate] | ≤ 100 nM | >10 | ≤ 2000 nM | –
CCC(=O)NC[C@H]1CC[C@H](n2c(CC#N)nc3cnc4ccsc4c32)CC1 [Example 89, N-({trans-4-[2-(Cyanomethyl)-1H-imidazo[4,5-d]thieno[3,2-b]pyridin-1-yl]cyclohexyl}methyl)propanamide] | ≤ 100 nM | >10 | > 2000 nM | –
CCNC(=O)C[C@H]1CC[C@H](n2c([C@@H](C)O)nc3cnc4ccsc4c32)CC1 [Example 31, N-Ethyl-2-(trans-4-{2-[(1R)-1-hydroxyethyl]-1H-imidazo[4,5-d]thieno[3,2-b]pyridin-1-yl}cyclohexyl)acetamide] | ≤ 1000 nM | >10 | – | +++++
C[C@@H](O)c1nc2cnc3ccsc3c2n1[C@H]1CC[C@H](CC#N)[C@H](N)C1 [Example 67, ((1R,2R,4S)-2-Amino-4-{2-[(1R)-1-hydroxyethyl]-1H-imidazo[4,5-d]thieno[3,2-b]pyridin-1-yl}cyclohexyl)acetonitrile] | ≤ 1000 nM | >10 | > 2000 nM | –
((1R,2R,4S)-2-Hydroxy-4-{2-[(1R)-1-hydroxyethyl]-1H-imidazo[4,5-d]thieno[3,2-b]pyridin-1-yl}cyclohexyl)acetonitrile and ((1S,2S,4R)-2-hydroxy-4-{2-[(1R)-1-hydroxyethyl]-1H-imidazo[4,5-d]thieno[3,2-b]pyridin-1-yl}cyclohexyl)acetonitrile [36 (second peak)] | ≤ 100 nM | >10 | ≤ 1000 nM | –
C[C@@H](O)c1nc2cnc3ccsc3c2n1[C@H]1CC[C@H](NCC(F)(F)F)CC1 [Example 4, (1R)-1-(1-{trans-4-[(2,2,2-Trifluoroethyl)amino]cyclohexyl}-1H-imidazo[4,5-d]thieno[3,2-b]pyridin-2-yl)ethanol] | ≤ 100 nM | >10 | ≤ 2000 nM | –
C[C@@H](O)c1nc2cnc3ccsc3c2n1C1CCN(CCCC(F)(F)F)CC1 [Example 60, (1R)-1-{1-[1-(4,4,4-Trifluorobutyl)piperidin-4-yl]-1H-imidazo[4,5-d]thieno[3,2-b]pyridin-2-yl}ethanol] | ≤ 1000 nM | >10 | – | +++++
CN1CC(c2nc3cnc4ccsc4c3n2[C@H]2CC[C@H](CC#N)CC2)C1 [Example 29, {trans-4-[2-(1-Methylazetidin-3-yl)-1H-imidazo[4,5-d]thieno[3,2-b]pyridin-1-yl]cyclohexyl}acetonitrile] | ≤ 1000 nM | >9 | ≤ 2000 nM | –
C[C@@H](O)c1nc2cnc3ccsc3c2n1[C@H]1CCCOC1 [Example 1, (1R)-1-{1-[(3S)-Tetrahydro-2H-pyran-3-yl]-1H-imidazo[4,5-d]thieno[3,2-b]pyridin-2-yl}ethanol] | ≤ 1000 nM | >3 | – | +++++
